“Also recorded” adds a separate entry of the source. Read-outs that look alike come from different tables or passages of the source.
Tests used:
[1] = tested on: proteasome subunits LMP7/X and LMP2; assay: Competition screening assay in EL4 cells with biotin-dihydroeponemycin probe, streptavidin-HRP western blot; assay type: binding, Murine; settings: for Proteasome subunit binding and specificity, competition against biotin-dihydroeponemycin labelling: EL4 cells, 30 min pre-incubation, 1 hr probe, western blot
Procedure: (§1) Med. Chem. Lett. 9, 3335-3340 (1999) (herein incorporated by reference); and “Towards Immunoproteasome-Specific Inhibitors: An Improved Synthesis of Dihydroeponemycin.” Specifically, various concentrations of these compounds were pre-incubated in EL4 cells at 37° C. for 30 min. […] After cells were lysed, whole cell lysates were analyzed using 12% SDS-PAGE and transferred to PVDF membranes. Biotinylated proteins were then visualized using streptavidin-horseradish peroxidase (HRP) and enhanced chemiluminescence (ECL).
(§2) The western blots were performed using EL4 cells pre-incubated with proteasome inhibitors for 30 min before treating with biotinylated compounds. After 1 hr incubation, cells were lysed, and analyzed by western blot using streptavidin-HRP and ECL.
Similar competition assays were performed to screen for immunoproteasome inhibitors in a EL4 cell model system. EL4 cell system was chosen since these cells highly express catalytic subunits of both the constitutive and immunoproteasomes.
(§3) Cell Culture and Screening Assay: Murine lymphoma EL4 (ATCC) cells were grown in RPMI medium (Gibco), 10% fetal bovine serum and 1% penicillin and streptomycin at […] in a 5% CO2 incubator. […] The cells were then incubated for an additional 1 hour. Cell lysates were analyzed by 12% SDS-PAGE and transferred to PVDF membrane. Proteins that were covalently modified by biotinylated compounds were visualized by enhanced chemiluminescence using streptavidin conjugated horseradish peroxidase (Sigma-Aldrich) or anti-LMP2 (Affinity BioReagents) and Biomax X-ray film (Kodak).

[2] = biological target: T1, 20S regular proteasome (Bos taurus, UniProt Q2TBX6+Q32KL2); assay: Enzyme kinetics: inhibition of chymotrypsin-like activity of purified 20S constitutive (regular) proteasome, fluorogenic substrate Suc-Leu-Leu-Val-Tyr-AMC; assay type: biochemical, bovine; settings: for kinact/KI: read-out: Kobs/[I], 20S regular proteasome
T1 construct: purchased Biomol International
Procedure: (§4) Since LMP2 is a major catalytic subunit responsible for chymotrypsin-like activity, inactivation of the LMP2 subunit inhibits proteolytic activity of immunoproteasome. […] Enzyme kinetics experiments were also carried out with the purified 20S constitutive proteasome as control.
(§5) Enzyme kinetics were performed by measuring the chymotrypsin-like activity of 20S immunoproteasome and regular proteasome in the presence of compound 15 using a fluorogenic peptide substrate.
(§6) Enzyme Kinetic Studies: kassociation values were determined as follows. Inhibitors were mixed with a fluorogenic peptide substrate and assay buffer [20 mM Tris (pH 8.0), 0.5 mM EDTA, and 0.035% SDS] in a 96-well plate. The chymotrypsin-like activity was assayed using the fluorogenic peptide substrates Suc-Leu-Leu-Val-Tyr-AMC (Sigma-Aldrich). Hydrolysiswas initiated by the addition of bovine 20S proteasome or immunoproteasome (Biomol International), and the reaction was followed by fluorescence (360-nm excitation/460-nm detection) using a Microplate Fluorescence Reader (FL600; Bio-Tek Instruments, Inc., Winnoski, Vt.) employing the software KC4 v.2.5 (Bio-Tek Instruments, Inc., Winooski, Vt.). Reactions were allowed to proceed for 60-90 min, and fluorescence data were collected every 1 min. Fluorescence was quantified as arbitrary units and progression curves were plotted for each reaction as a function of time. kobserved/[I] values were obtained using PRISM program by nonlinear least squares fit of the data to the following equation: fluorescence=vst+[(v0−vs)/kobserved][1−exp(−kobserved t)], where v0 and vs are the initial and final velocities, respectively, and kobserved is the reaction rate constant. […] Reactions were performed using inhibitor concentrations that were <100-fold of those of the proteasome assayed.

[3] = biological target: T2, LMP2 subunit (Mus musculus, UniProt O35955+P28076); assay: LMP2 mobility shift in EL4 cells, western blot with anti-LMP2 antibody; assay type: binding, Murine; settings: 1 hr at 37° C.; for Covalent modification of LMP2, mobility shift of adduct on SDS PAGE: anti-LMP2 western blot
T2 construct: sufficient to modify LMP2 subunits present in cells; endogenous in cells; host or cells: EL4 murine lymphoma cells (ATCC)
Procedure: The mobility shift of LMP2:15 adduct was investigated to further verify that compound 15 covalently modifies the LMP2 subunit (FIG. 5). After EL4 cells were incubated with compound 15 or assay probes (Biotin-EPX and Biotin-EPN) for 1 hr at 37° C., cells were lysed and boiled for 15 min. Whole cell proteins were then analyzed by western blot using anti-LMP2 antibody.
Since molecular weights of the LMP2 subunit are increased by 828.08 (for biotin-epoxomicin) and 1078.45 (for biotin-dihydroeponemycin), assay probe-LMP2 adducts are expected to show a slower mobility as compared to free LMP2 (lanes 1-3, FIG. 5). […] It can be explained by a smaller molecular weight of compound 15 (484.76) compared to assay probes (828.08 and 1078.45). […] LMP2 inhibitor efficiently blocks the proteolytic activity of immunoproteasome with high specificity. Screening assay and mobility shift studies have shown that compound 15 selectively inactivates the LMP2 subunit via covalent modification. Since LMP2 is a major catalytic subunit responsible for chymotrypsin-like activity, inactivation of the LMP2 subunit inhibits proteolytic activity of immunoproteasome. Confirmation of this is provided by enzyme kinetics studies performed using purified 20S immunoproteasome. Enzyme kinetics experiments were also carried out with the purified 20S constitutive proteasome as control.
as §3

[4] = tested on: 20S immunoproteasome; assay: Enzyme kinetics: inhibition of chymotrypsin-like activity of purified 20S immunoproteasome, fluorogenic substrate Suc-Leu-Leu-Val-Tyr-AMC; assay type: biochemical, bovine; settings: for Kobs/[I], 20S immunoproteasome: purified 20S immunoproteasome; for Relative selectivity: immunoproteasome/regular proteasome, normalized against epoxomicin
Procedure: as §4, §5, §6

[5] = tested on: proteasome subunits Z, MECL1, LMP7 and X; assay: Competition screening assay in EL4 cells with biotin-epoxomicin probe, streptavidin-HRP western blot; assay type: binding, Murine; settings: 30 min pre-incubation, 1 hr probe
Procedure: as §1, §2
Preincubation of EL4 cells with 1 μM of compound 15 (one equivalent of assay probe) was sufficient to selectively modify the catalytic threonine residue of LMP2 subunit, thereby preventing further modification of LMP2 subunit by biotin-dihydroeponemycin, resulting in selective attenuation of LMP2 protein band on western blot.
Cell Culture and Screening Assay: Murine lymphoma EL4 (ATCC) cells were grown in RPMI medium (Gibco), 10% fetal bovine serum and 1% penicillin and streptomycin at […] in a 5% CO2 incubator. […] Cell lysates were analyzed by 12% SDS-PAGE and transferred to PVDF membrane. […]

[6] = tested on: H460 (Lung); assay: Cell proliferation assay by counting cell numbers after 24 h incubation; assay type: cell-based; settings: cell number after 24 h incubation
Procedure: (§7) To compare the efficacy of the present LMP2 inhibitor compounds and, in particular, LMP2 inhibitor 15, as compared to prior known inhibitors, comparative tests were conducted using compound 21 in expressing tumor cells. LMP2 inhibitor compound 21 blocked proliferation of lung cancer H460, prostate cancer cells PC3 and multiple myeloma cells RPMI8226, as summarized in Table 2, below.

[7] = tested on: RPMI8226 (MM); assay: as above; assay type: cell-based; settings: cell number after 24 h incubation
Procedure: as §7

[8] = tested on: PC3 (Prostate); assay: as above; assay type: cell-based; settings: cell number after 24 h incubation
Procedure: as §7

[9] = tested on: WI-38 (Fibroblast); assay: as above; assay type: cell-based; settings: cell number after 24 h incubation

CCCCCCC(=O)N[C@@H](C)C(=O)N[C@@H](CC(C)C)C(=O)[C@@]1(CO)CO1 [Compound 9]
Proteasome subunit binding and specificity, competition against biotin-dihydroeponemycin labelling [1]: LMP7/X and LMP2 protein bands are competed away

CCCCCCC(=O)N[C@@H](CO)C(=O)N[C@@H](CC(C)C)C(=O)[C@@]1(COCOC)CO1 [Compound 11]
Proteasome subunit binding and specificity, competition against biotin-dihydroeponemycin labelling [1]: do not selectively target proteasome subunits; also recorded: dramatic loss in the potency and specificity compared to dihydroeponemycin

CCCCCCC(=O)N[C@@H](CO)C(=O)N[C@@H](CC(C)C)C(=O)[C@@]1(COCOCCOC)CO1 [Compound 12]
Proteasome subunit binding and specificity, competition against biotin-dihydroeponemycin labelling [1]: selectively targeting the immunoproteasome subunit LMP2; also recorded: high specificity towards LMP2 was achieved

CCCCCCC(=O)N[C@@H](C)C(=O)N[C@@H](CC(C)C)C(=O)[C@@]1(CO[Si](C)(C)C(C)(C)C)CO1 [Compound 15]
Inhibition of chymotrypsin-like activity of 20S regular proteasome (in words) ([2]; fluorogenic peptide substrate): poorly inhibited the chymotrypsin-like activity of 20S regular proteasome
kinact/KI [2]: 49 ± 18 M⁻¹ s⁻¹
Concentration sufficient to selectively modify the catalytic threonine residue of LMP2 subunit ([1]; EL4 cells preincubated, one equivalent of assay probe (biotin-dihydroeponemycin)): 1 µM
Proteasome subunit binding and specificity, competition against biotin-dihydroeponemycin labelling [1]: selectively targeting the immunoproteasome subunit LMP2; also recorded: even higher specificity towards the LMP2 subunit was obtained
Covalent modification of LMP2, mobility shift of adduct on SDS PAGE [3]: covalently modify the immunoproteasome subunit LMP2
Covalent modification of LMP2, mobility shift of adduct on SDS PAGE ([3]; listed as compound 15): slower mobility for the LMP2-15 adduct on SDS PAGE was clearly shown as compared to free LMP2
Concentration sufficient to modify LMP2 subunits present in cells ([3]; mobility shift): 1 µM
Kobs/[I], 20S immunoproteasome ([4]; chymotrypsin-like activity): 83 ± 27 M^−1S^−1
higher selectivity toward the 20S immunoproteasome in comparison to dihydroeponemycin ([4]; chymotrypsin-like activity, versus dihydroeponemycin): 5 fold
higher selectivity toward the 20S immunoproteasome in comparison to epoxomicin ([4]; chymotrypsin-like activity, versus epoxomicin): 24 fold
Inhibition of chymotrypsin-like activity of 20S immunoproteasome (in words) ([4]; fluorogenic peptide substrate): displayed a better inhibitory activity against the immunoproteasome; also recorded: time- and concentration-dependent inhibition
Relative selectivity [4]: 24

CC(C)CCCCC(=O)N[C@@H](CO)C(=O)N[C@@H](CC(C)C)C(=O)[C@@]1(CO)CO1 [Dihydroeponemycin, dihydroeponemycin, reference compound]
kinact/KI ([2]; chymotrypsin-like activity, purified 20S constitutive proteasome): 721 ± 84 M⁻¹ s⁻¹
Proteasome subunit binding and specificity, competition against biotin-dihydroeponemycin labelling [1]: LMP7/X and LMP2 protein bands are competed away; also recorded: do not have specificity towards subunits of either the constitutive or immunoproteasomes
Kobs/[I], 20S immunoproteasome ([4]; chymotrypsin-like activity): 251 ± 121 M^−1S^−1
Relative selectivity [4]: 5

CC[C@H](C)[C@H](NC(=O)[C@H]([C@@H](C)CC)N(C)C(C)=O)C(=O)N[C@H](C(=O)N[C@@H](CC(C)C)C(=O)[C@@]1(C)CO1)[C@@H](C)O [Epoxomicin, epoxomicin]
Proteasome subunit binding, competition against biotin-epoxomicin labelling [5]: proteasome subunit (Z, MECL1, LMP7 and X) bands are efficiently competed away
Proteasome subunit binding, competition against biotin-epoxomicin labelling ([5]; listed as epoximicin): do not have specificity towards subunits of either the constitutive or immunoproteasomes
IC50 [6]: 100 nM
IC50 [7]: 100 nM
IC50 [8]: 10 nM
IC50 [9]: 28 nM
Kobs/[I], 20S immunoproteasome ([4]; chymotrypsin-like activity): 3,044 ± 1,423 M^−1S^−1
